Test results taken from US20070129359A1, “Tetrahydronaphthalene derivatives, processes for their preparation and their use as antiinflammatory agents” (priority 2005, published 2007).

Key:
[1] = molecular target: T1, progesterone receptor (PR) (Homo sapiens, UniProt P06401); assay: binding to the progesterone receptor (recombinantly prepared receptor)
T1 construct: made in house
T1 sequence (P06401 1-933): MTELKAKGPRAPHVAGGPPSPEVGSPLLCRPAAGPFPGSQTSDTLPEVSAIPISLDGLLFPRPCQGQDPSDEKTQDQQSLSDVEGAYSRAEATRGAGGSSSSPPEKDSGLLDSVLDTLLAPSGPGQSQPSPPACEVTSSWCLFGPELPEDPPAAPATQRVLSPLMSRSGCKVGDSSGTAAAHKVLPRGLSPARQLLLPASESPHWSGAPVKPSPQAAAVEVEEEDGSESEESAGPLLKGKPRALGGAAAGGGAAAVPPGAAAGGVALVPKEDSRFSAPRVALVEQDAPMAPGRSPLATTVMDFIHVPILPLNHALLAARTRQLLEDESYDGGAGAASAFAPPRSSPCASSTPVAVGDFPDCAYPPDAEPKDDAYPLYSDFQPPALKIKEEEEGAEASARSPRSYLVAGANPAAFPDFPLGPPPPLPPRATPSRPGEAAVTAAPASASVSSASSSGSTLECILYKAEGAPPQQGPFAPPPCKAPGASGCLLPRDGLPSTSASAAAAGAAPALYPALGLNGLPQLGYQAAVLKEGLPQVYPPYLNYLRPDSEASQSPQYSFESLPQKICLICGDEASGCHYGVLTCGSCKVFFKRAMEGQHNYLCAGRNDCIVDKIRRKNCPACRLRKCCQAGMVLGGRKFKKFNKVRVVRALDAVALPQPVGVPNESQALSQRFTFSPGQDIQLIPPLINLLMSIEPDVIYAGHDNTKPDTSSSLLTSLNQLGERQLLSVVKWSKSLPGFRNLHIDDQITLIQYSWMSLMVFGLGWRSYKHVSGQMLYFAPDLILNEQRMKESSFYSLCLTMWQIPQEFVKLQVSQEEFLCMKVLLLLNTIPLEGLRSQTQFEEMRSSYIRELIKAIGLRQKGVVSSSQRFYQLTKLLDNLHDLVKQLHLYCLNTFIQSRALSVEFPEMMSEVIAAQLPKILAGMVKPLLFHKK
Text: (§1) The binding of the substances to the glucocorticoid receptor (GR) and further steroid hormone receptors (mineral corticoid receptor (MR), progesterone receptor (PR) and androgen receptor (AR)) is examined with the aid of recombinantly prepared receptors. Cytosol preparations of Sf9 cells which had been infected with recombinant baculoviruses which code for the GR are employed for the binding studies. Compared with the reference substance [^3H]-dexamethasone, the substances show a high affinity for the GR.

[2] = molecular target: T2, glucocorticoid receptor (GR) (Homo sapiens, UniProt P04150); assay: binding to the glucocorticoid receptor (recombinant receptor, Sf9 cytosol); settings: cytosol of Sf9 cells, reference [3H]-dexamethasone
T2 construct: made in house; host or cells: Sf9 cells infected with recombinant baculovirus (cytosol preparation)
T2 sequence (P04150 1-777): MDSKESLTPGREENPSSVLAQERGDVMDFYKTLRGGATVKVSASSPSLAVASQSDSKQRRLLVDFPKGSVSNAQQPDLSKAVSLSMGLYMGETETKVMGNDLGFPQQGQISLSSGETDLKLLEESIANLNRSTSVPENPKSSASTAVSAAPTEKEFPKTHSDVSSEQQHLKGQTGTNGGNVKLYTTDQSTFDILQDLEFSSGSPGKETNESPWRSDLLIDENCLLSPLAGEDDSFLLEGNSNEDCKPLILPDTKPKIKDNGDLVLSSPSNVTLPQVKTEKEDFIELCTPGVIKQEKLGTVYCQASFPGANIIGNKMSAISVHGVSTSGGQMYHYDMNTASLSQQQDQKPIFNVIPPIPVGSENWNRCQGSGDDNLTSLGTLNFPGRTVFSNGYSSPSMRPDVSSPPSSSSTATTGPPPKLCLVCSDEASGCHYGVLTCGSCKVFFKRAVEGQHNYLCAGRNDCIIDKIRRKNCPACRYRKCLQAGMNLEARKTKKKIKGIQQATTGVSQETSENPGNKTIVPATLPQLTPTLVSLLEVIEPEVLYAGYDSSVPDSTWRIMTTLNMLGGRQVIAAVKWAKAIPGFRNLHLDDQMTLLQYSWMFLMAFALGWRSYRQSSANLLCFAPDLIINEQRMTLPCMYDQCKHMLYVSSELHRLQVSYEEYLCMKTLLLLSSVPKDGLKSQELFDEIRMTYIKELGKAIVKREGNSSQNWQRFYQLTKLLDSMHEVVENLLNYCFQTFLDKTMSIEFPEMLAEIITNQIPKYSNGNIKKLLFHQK
Text: as §1

[3] = tested on: IL-8 secretion in the human THP-1 monocyte cell line; assay: inhibition of LPS-induced IL-8 secretion in THP-1 cells (ELISA); assay type: cell-based
Protocol: The compounds of the invention of the general formula (I) inhibit the secretion, induced by lipopolysaccharide (LPS), of the cytokine IL-8 in the human THP-1 monocyte cell line. The concentration of the cytokines was determined in the supernatant using a commercially available ELISA kit.

Row | IC50 [1] [nM] | IC50 [2] [nM] | IC50 ([3]; LPS, ELISA of supernatant, read-out: IC50(ILB) inhibition of LPS-induced IL-8 secretion) [nM] | Compound | efficiency with regard to [3H]-dexamethasone as standard ([3]; LPS-induced IL-8 secretion) [%]
1 | > 1000 | 36 | – | CC1(C)C[C@@](O)(C(F)(F)F)[C@H](NC(=O)c2ccc3occc3c2)c2ccc(F)c(O)c21 (relative stereo) [Example 3L, N-(cis-6-fluoro-2,5-dihydroxy-4,4-dimethyl-2-trifluoro-methyl-1,2,3,4-tetrahydronaphthalen-1-yl)benzofuran-5-carboxamide] | –
2 | – | – | 1000 | COc1c(F)ccc2c1C(C)(C)C[C@@](O)(C(F)(F)F)[C@@H]2NC(=O)Nc1ccc2ccccc2c1 [Example 3E] | 11
